Drawing on patent publication US20230321086A1, “METHODS AND MATERIALS FOR INHIBITING NICOTINAMIDE PHOSPHORIBOSYLTRANSFERASE ACTIVITY” (Universiy of Pittsburgh - Of the Commonwealth System of …, priority 2020, published 2023), this text covers IC50 for 53 compounds.

The target in test [1] is NAMPT (Homo sapiens, UniProt P43490). The test is described as follows: Assay for in vitro NAMPT activity via NMN assessment. It counts as biochemical. The following applies: read-out: A: NAMPT enzyme inhibitory activity, IC50. The procedure: The following were added to a well: 20 μL 2× test compound in Basic Buffer (0.02% BSA, 2 mM DTT, 12 mM MgCl2, 50 mM Tris pH7.5); 10 μL 8 μg/mL NAMPT, and 200 μM PRPP working solution (or PRPP working solution to background wells). 10 μL 100 μM NAM working solution was added to start the reaction. The plate was sealed and incubated for 45 minutes at 37° C. After incubation, 10 μL 20% acetophenone in DMSO, 10 μL 2N KOH, and 20 μL 88% formic acid were added. The plate was sealed and incubated for 30 minutes at 37° C. After incubation, fluorescence at Ex/Em 387/441 was read.
In each table header, A: NAMPT enzyme inhibitory activity, IC50 (μM); B: Cellular NAD inhibitory activity, IC50 (μM); and C: change in NAD levels in response to test compound, shown as % of NAD activity in the absence of test compound. […] A percentage of 100 percent would indicate no increase or decrease in NAD levels as compared to that measured for untreated control cells, while a percentage of 50 percent would indicate a decrease in NAD levels of 50 percent as compared to that measured for untreated control cells.

Test [2] deals with A431 cells. Kind of test: Assay for total NADH and NAD+ measurements in cells. It counts as cell-based. As to conditions: Homo sapiens, A-431, read-out: B: Cellular NAD inhibitory activity, IC50. In short, it runs like this:
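Cells (2,000/well) treated with compounds overnight, washed with PBS containing 1 mM CaCl2 and MgCl2, lysed with 0.4% DTAB in phosphate buffer pH 8.0. Reaction mix added and fluorescence (Ex/Em 530/585) followed over 8 cycles every 92 seconds; NAD given as % of untreated control.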

Chain of NAMPT (P43490 whole entry, species assumed): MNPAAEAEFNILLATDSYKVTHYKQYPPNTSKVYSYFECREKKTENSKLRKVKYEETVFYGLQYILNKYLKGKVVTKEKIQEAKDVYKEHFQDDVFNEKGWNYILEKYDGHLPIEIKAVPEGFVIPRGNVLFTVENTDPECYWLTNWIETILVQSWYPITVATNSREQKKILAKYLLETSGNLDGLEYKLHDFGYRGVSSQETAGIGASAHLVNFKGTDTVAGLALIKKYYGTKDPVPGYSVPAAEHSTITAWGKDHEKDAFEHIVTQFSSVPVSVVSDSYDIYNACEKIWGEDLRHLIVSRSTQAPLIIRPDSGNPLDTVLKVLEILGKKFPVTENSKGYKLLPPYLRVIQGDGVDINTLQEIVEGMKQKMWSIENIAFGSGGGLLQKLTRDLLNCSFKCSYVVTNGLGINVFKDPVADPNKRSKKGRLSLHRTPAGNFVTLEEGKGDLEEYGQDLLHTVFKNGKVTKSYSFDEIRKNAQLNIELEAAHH

Usually IC50 stands for the concentration that inhibits the measured activity by half. Consider `O=C(NCc1cccnc1)c1ccc2nc(-c3ccccc3)c(-c3ccccc3)nc2c1` [BC18405], for which the IC50 in test [1] and in test [2] was under 1000 nM in each case.

Consider `O=C(NCCc1cccnc1)c1cnc2nc(-c3ccc(F)cc3)c(-c3ccc(F)cc3)nc2c1` [BC20205], for which the IC50 in test [1] and in test [2] was under 1000 nM each time. For the compound `O=C(NCc1cccnc1)Nc1cnc2nc(-c3ccc(F)cc3)c(-c3ccc(F)cc3)nc2c1` [BC20213], the IC50 in test [1] and in test [2] was under 1000 nM in each case. Turning to `O=C(NCCc1cccnc1)Nc1ccc2nc(-c3ccc(F)cc3)c(-c3ccc(F)cc3)nc2c1` [BC20216], the IC50 in test [1] and in test [2] was under 1000 nM throughout. With `O=C(Nc1cccnc1)Nc1ccc2nc(-c3ccc(F)cc3)c(-c3ccc(F)cc3)nc2c1` [BC20224], the half-inhibitory concentration (IC50) in test [1] and in test [2] was under 1000 nM each time. `O=C(NCc1ccc2nc(-c3ccc(F)cc3)c(-c3ccc(F)cc3)nc2c1)Nc1cccnc1` [BC20235]: the IC50 in test [1] and in test [2] was under 1000 nM throughout. `O=C(Nc1cccnc1)Nc1cnc2nc(-c3ccc(F)cc3)c(-c3ccc(F)cc3)nc2c1` [BC20254]: the 50% inhibitory concentration (IC50) in test [1] and in test [2] was under 1000 nM each time. In the case of `O=C(NCCc1cccnc1)Nc1cnc2nc(-c3ccc(F)cc3)c(-c3ccc(F)cc3)nc2c1` [BC20268], the IC50 in test [1] and in test [2] was under 1000 nM throughout. Take `CN1CCC[C@H](CNC(=O)c2ccc3nc(-c4ccc(F)cc4)c(-c4ccc(F)cc4)nc3c2)C1` [BC20280]: the IC50 in test [1] lay in the range of 1000 to 25000 nM. Still for that read-out and setting: the value for `COCC(=O)N1CCC[C@H](CNC(=O)c2ccc3nc(-c4ccc(F)cc4)c(-c4ccc(F)cc4)nc3c2)C1` [BC20281] was at least 25000 nM; that for `COCCNC(=O)N1CCC[C@H](CNC(=O)c2ccc3nc(-c4ccc(F)cc4)c(-c4ccc(F)cc4)nc3c2)C1` [BC20282] was at least 25000 nM. As for `CCCC(=O)N1CCC[C@H](CNC(=O)c2ccc3nc(-c4ccc(F)cc4)c(-c4ccc(F)cc4)nc3c2)C1` [BC20283], the half-maximal inhibitory concentration (IC50) in test [1] is at least 25000 nM. Still for that read-out and setting: the value for `CS(=O)(=O)N1CCC[C@H](CNC(=O)NCc2ccc3nc(-c4ccc(F)cc4)c(-c4ccc(F)cc4)nc3c2)C1` [BC20284] was 1000 to 25000 nM. On the same count and under the same terms, in the case of `O=C(NCc1ccc2nc(-c3ccc(F)cc3)c(-c3ccc(F)cc3)nc2c1)NC[C@H]1CCCNC1` [BC20285] it was 1000 to 25000 nM. As to `CN(C)CC(=O)Nc1cccc(-c2nc3ccc(C(=O)N4CCN(C)CC4)cc3nc2-c2cccc(NC(=O)CN(C)C)c2)c1` [BC20286], the half-maximal inhibitory concentration (IC50) in test [1] was at least 25000 nM.

For the compound `C#CCNC(=O)c1ccc2nc(-c3cccc(NS(C)(=O)=O)c3)c(-c3cccc(NS(C)(=O)=O)c3)nc2c1` [BC20288], the IC50 in test [1] is at least 25000 nM.

Take `C#CCNC(=O)c1ccc2nc(-c3cccc(CNC(=O)CN(C)C)c3)c(-c3cccc(CNC(=O)CN(C)C)c3)nc2c1` [BC20289]: in test [1], the half-maximal inhibitory concentration (IC50) is at least 25000 nM. Same read-out and setting: the value for `CN1CCN(C(=O)c2ccc3nc(-c4cccc(NS(C)(=O)=O)c4)c(-c4ccc(F)cc4)nc3c2)CC1` [BC20290] was at least 25000 nM. As to `O=C1N(Cc2cccnc2)CCN1c1cnc2nc(-c3ccc(F)cc3)c(-c3ccc(F)cc3)nc2c1` [BC20291], in test [1], the half-maximal inhibitory concentration (IC50) was at least 25000 nM. Consider `CC(C)CC(=O)N1CCC[C@H](CNC(=O)c2ccc3nc(-c4ccc(F)cc4)c(-c4ccc(F)cc4)nc3c2)C1` [BC20292], for which the IC50 in test [1] was at least 25000 nM. Turning to `CCCS(=O)(=O)N1CCCC(NC(=O)Nc2cnc3nc(-c4ccc(F)cc4)c(-c4ccc(F)cc4)nc3c2)C1` (centres unmarked) [BC20293], in test [1], the IC50 was at least 25000 nM. Still for that read-out and setting: the value for `CN1CCC[C@H](CNC(=O)NCc2ccc3nc(-c4ccc(F)cc4)c(-c4ccc(F)cc4)nc3c2)C1` [BC20294] was at least 25000 nM; that for `C#CCCC(=O)N1CCC[C@H](CNC(=O)c2ccc3nc(-c4ccc(F)cc4)c(-c4ccc(F)cc4)nc3c2)C1` [BC20295] was at least 25000 nM. Same read-out and setting: in the case of `COCC(=O)NCc1cccc(-c2nc3ccc(C(=O)N4CCN(C)CC4)cc3nc2-c2ccc(F)cc2)c1` [BC20296] it was at least 25000 nM; in that of `C#CCNC(=O)Nc1cnc2nc(-c3ccc(F)cc3)c(-c3ccc(F)cc3)nc2c1` [BC20297], at least 25000 nM.

As to `COCCNC(=O)Nc1cnc2nc(-c3ccc(F)cc3)c(-c3ccc(F)cc3)nc2c1` [BC20298], the IC50 in test [1] is at least 25000 nM. Same read-out and setting: the value for `CC(=O)N1CCC[C@H](CNC(=O)Nc2ccc3nc(-c4ccc(F)cc4)c(-c4ccc(F)cc4)nc3c2)C1` [BC20299] was 1000 to 25000 nM.

In the case of `CS(=O)(=O)N1CCCC(CNC(=O)Nc2ccc3nc(-c4ccc(F)cc4)c(-c4ccc(F)cc4)nc3c2)C1` (centres unmarked) [BC20300], in test [1], the IC50 was in the range of 1000 to 25000 nM.

With `CC(=O)N1CCCC(CNC(=O)NCc2ccc3nc(-c4ccc(F)cc4)c(-c4ccc(F)cc4)nc3c2)C1` (centres unmarked) [BC20301], the IC50 in test [1] is 1000 to 25000 nM.

As for `Fc1ccc(-c2nc3cc4[nH]c(=S)n(CCc5cccnc5)c4nc3nc2-c2ccc(F)cc2)cc1` [BC20305], the half-inhibitory concentration (IC50) in test [1] was at least 25000 nM.

As to `CC(=O)NCc1cccc(-c2nc3ccc(C(=O)N4CCN(C)CC4)cc3nc2-c2ccc(F)cc2)c1` [BC20306], the IC50 in test [1] was at least 25000 nM.

For `CN(C)Cc1cccc(-c2nc3ccc(C(=O)N4CCN(C)CC4)cc3nc2-c2ccc(F)cc2)c1` [BC20307], in test [1], the half-inhibitory concentration (IC50) was at least 25000 nM.

For `Fc1ccc(-c2nc3cc(NC(=S)NCCc4cccnc4)cnc3nc2-c2ccc(F)cc2)cc1` [BC20309], the IC50 in test [1] and in test [2] was under 1000 nM in each case. On to `O=C(NCCc1cccnc1)Nc1ccc2nc(-c3ccc(F)cc3)c(-c3ccc(F)cc3)nc2n1` [BC20310], for which the IC50 in test [1] is under 1000 nM. For the compound `O=C(NCCc1cccnc1)Nc1cnc2nc(-c3ccc(Cl)cc3)c(-c3ccc(Cl)cc3)nc2c1` [BC20311], the IC50 in test [1] and in test [2] was under 1000 nM each time. Consider `CN(C)CCNC(=O)Nc1cnc2nc(-c3ccc(F)cc3)c(-c3ccc(F)cc3)nc2c1` [BC20312], for which the IC50 in test [1] is at least 25000 nM. As for `O=C(NCCc1cccnn1)Nc1cnc2nc(-c3ccc(F)cc3)c(-c3ccc(F)cc3)nc2c1` [BC20314], the IC50 in test [1] and in test [2] was under 1000 nM in each case.

In the case of `O=C(NCCc1cncs1)Nc1cnc2nc(-c3ccc(F)cc3)c(-c3ccc(F)cc3)nc2c1` [BC20315], the IC50 in test [1] and in test [2] was under 1000 nM in each case. Regarding `Nc1ccc(CNC(=O)Nc2cnc3nc(-c4ccc(F)cc4)c(-c4ccc(F)cc4)nc3c2)cn1` [BC20316], the IC50 in test [1] and in test [2] was under 1000 nM each time. Regarding `O=C(Nc1cnc2nc(-c3ccc(F)cc3)c(-c3ccc(F)cc3)nc2c1)N1Cc2ccccc2C1` [BC20317], the half-maximal inhibitory concentration (IC50) in test [1] and in test [2] was under 1000 nM each time. As to `O=C(NCCc1cn[nH]c1)Nc1cnc2nc(-c3ccc(F)cc3)c(-c3ccc(F)cc3)nc2c1` [BC20318], the IC50 in test [1] and in test [2] was under 1000 nM each time.

On to `O=C(NCCc1c[nH]cn1)Nc1cnc2nc(-c3ccc(F)cc3)c(-c3ccc(F)cc3)nc2c1` [BC20319], for which the IC50 in test [1] and in test [2] was under 1000 nM each time.

As for `Nc1ccc(CCNC(=O)Nc2cnc3nc(-c4ccc(F)cc4)c(-c4ccc(F)cc4)nc3c2)cn1` [BC20320], the IC50 in test [1] and in test [2] was under 1000 nM in each case.

With `O=C(Nc1cnc2nc(-c3ccc(F)cc3)c(-c3ccc(F)cc3)nc2c1)N1Cc2cccnc2C1` [BC20321], the 50% inhibitory concentration (IC50) in test [1] and in test [2] was under 1000 nM each time. Regarding `Fc1ccc(-c2nc3ccc(NC(=S)N4Cc5ccccc5C4)cc3nc2-c2ccc(F)cc2)cc1` [BC20322], the IC50 in test [1] and in test [2] was under 1000 nM in each case.

As for `Nc1ccc(CNC(=S)Nc2ccc3nc(-c4ccc(F)cc4)c(-c4ccc(F)cc4)nc3c2)cn1` [BC20323], the IC50 in test [1] and in test [2] was under 1000 nM each time. Consider `Nc1ccc(CNC(=S)Nc2cnc3nc(-c4ccc(F)cc4)c(-c4ccc(F)cc4)nc3c2)cn1` [BC20324], for which the 50% inhibitory concentration (IC50) in test [1] and in test [2] was under 1000 nM each time.

For the compound `O=C(NCc1cnc2nc(-c3ccc(F)cc3)c(-c3ccc(F)cc3)nc2c1)Nc1cccnc1` [BC20325], the IC50 in test [1] and in test [2] was under 1000 nM each time. For `O=C(NCc1cccnc1)NCc1cnc2nc(-c3ccc(F)cc3)c(-c3ccc(F)cc3)nc2c1` [BC20326], the IC50 in test [1] and in test [2] was 1000 to 25000 nM each time. Consider `O=C(NCc1cnc2nc(-c3ccc(F)cc3)c(-c3ccc(F)cc3)nc2c1)N1Cc2ccncc2C1` [BC20327], for which the IC50 in test [1] and in test [2] was under 1000 nM in each case. `O=C(NCc1cnc2nc(-c3ccc(F)cc3)c(-c3ccc(F)cc3)nc2c1)c1cc2ccncc2o1` [BC20328]: the IC50 in test [1] and in test [2] was under 1000 nM each time. Regarding `O=C(NCc1cnc2nc(-c3ccc(F)cc3)c(-c3ccc(F)cc3)nc2c1)c1cc2ccccc2s1` [BC20329], the IC50 is at least 25000 nM in test [1] and 1000 to 25000 nM in test [2].

Consider `O=C(Nc1ccc2nc(-c3ccc(F)cc3)c(-c3ccc(F)cc3)nc2c1)N1Cc2ccccc2C1` [BC20330], for which the IC50 in test [1] and in test [2] was under 1000 nM in each case.
